Drawing on US8853203B2, “Diazepinone derivatives” (Novartis AG, priority 2012, dated 2014), this text covers IC50 for 22 compounds.

In assay [1] the target is human mGluR5a receptors (Homo sapiens (Human), UniProt P41594). The experiment in a line: inhibition of glutamate-induced elevation of intracellular calcium in L(tk-) cells expressing human mGluR5a. The class given is cell-based. The note with it: glutamate-induced intracellular calcium elevation, L(tk-) cells expressing human mGluR5a; read-out: mGluR5 IC50. The gist of the method:
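Compounds tested for inhibition of the glutamate-induced rise in intracellular calcium concentration in L(tk-) cells stably expressing human mGluR5a.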

The target in assay [2] is human mGluR1 (Homo sapiens (Human), UniProt Q13255). Put plainly: mGluR1 antagonism, L-glutamate induced intracellular calcium increase (FLIPR) in CHO cells stably expressing human mGluR1. It counts as cell-based. Particulars: L-glutamate induced intracellular calcium, CHO cells expressing human mGluR1, FLIPR.
human mGluR1, sequence (Q13255 19-1194): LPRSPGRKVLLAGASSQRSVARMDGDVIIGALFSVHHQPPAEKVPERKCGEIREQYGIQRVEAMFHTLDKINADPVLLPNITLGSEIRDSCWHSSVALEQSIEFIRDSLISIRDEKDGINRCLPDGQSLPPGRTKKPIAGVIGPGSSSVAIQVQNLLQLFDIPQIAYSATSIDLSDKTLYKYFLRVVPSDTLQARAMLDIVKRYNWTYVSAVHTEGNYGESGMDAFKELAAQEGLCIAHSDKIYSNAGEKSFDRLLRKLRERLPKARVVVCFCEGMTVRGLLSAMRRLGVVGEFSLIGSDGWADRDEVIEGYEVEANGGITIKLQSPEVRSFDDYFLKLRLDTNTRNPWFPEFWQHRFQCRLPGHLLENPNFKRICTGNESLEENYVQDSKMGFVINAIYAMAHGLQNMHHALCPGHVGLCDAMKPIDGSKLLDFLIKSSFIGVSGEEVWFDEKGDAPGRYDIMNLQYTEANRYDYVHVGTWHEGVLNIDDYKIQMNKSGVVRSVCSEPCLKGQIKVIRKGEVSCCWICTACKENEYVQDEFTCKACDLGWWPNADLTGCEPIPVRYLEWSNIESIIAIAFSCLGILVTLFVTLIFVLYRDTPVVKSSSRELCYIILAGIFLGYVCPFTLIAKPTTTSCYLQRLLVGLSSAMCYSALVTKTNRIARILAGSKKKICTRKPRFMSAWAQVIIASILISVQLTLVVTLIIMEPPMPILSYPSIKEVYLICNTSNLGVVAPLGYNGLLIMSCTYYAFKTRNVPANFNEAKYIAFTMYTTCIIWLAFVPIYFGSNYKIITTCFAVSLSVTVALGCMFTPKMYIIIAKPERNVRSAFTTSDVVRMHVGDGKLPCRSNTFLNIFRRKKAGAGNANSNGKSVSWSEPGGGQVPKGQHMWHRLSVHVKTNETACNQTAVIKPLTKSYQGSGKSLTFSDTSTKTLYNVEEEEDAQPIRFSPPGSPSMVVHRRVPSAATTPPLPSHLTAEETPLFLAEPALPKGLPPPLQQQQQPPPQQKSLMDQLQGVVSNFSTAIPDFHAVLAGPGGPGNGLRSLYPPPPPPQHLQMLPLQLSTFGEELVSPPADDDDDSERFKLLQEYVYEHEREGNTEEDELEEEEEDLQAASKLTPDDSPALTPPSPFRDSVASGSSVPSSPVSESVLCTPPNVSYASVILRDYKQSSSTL

human mGluR5a receptors, sequence (P41594 other isoform, or with tags, fused parts or gaps): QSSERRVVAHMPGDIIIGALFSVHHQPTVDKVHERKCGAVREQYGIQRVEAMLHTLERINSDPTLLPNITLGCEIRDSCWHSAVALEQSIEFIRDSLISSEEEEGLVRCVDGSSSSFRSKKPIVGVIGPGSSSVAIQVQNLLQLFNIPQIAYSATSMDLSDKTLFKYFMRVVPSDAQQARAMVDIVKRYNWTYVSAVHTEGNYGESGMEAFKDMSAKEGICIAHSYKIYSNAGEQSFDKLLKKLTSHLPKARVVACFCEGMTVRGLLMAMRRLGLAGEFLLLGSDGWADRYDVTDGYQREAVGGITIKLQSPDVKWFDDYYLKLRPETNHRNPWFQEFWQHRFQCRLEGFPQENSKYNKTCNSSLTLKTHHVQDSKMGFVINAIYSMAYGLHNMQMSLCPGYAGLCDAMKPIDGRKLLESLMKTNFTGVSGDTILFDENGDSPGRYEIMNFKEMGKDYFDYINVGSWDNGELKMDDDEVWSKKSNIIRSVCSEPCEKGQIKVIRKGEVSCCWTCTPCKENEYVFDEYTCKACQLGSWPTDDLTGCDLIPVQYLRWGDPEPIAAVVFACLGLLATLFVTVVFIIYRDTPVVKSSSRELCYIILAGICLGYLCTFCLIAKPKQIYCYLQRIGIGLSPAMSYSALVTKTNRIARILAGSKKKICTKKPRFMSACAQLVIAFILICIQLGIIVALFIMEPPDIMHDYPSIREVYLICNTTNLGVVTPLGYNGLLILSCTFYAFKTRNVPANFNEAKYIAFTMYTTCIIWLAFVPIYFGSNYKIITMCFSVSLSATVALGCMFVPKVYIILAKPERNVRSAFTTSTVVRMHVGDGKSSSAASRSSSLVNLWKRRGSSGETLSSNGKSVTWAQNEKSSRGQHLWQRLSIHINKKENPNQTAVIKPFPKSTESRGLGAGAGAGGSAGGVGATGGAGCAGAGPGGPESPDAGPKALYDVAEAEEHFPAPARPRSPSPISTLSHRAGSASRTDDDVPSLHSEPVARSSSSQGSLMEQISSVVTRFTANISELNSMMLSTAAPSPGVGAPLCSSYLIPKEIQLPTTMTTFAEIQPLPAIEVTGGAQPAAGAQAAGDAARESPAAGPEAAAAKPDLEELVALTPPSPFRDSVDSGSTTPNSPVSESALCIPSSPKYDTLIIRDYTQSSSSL

`COc1cn(C2=NCC(=O)N3CCc4c(cccc4C4CC4)C3=C2)cn1` [Example 123d, 9-cyclopropyl-2-(4-methoxy-1H-imidazol-1-yl)-7,8-dihydro-[1,4]diazepino[7,1-a]isoquinolin-5(4H)-one]: the figures for the IC50 in assay [1] and in assay [2] were 0.011 µM and 0.511 µM, respectively.
Turning to `O=C1CN=C(n2cnc(C(F)(F)F)c2)C=C2c3cccc(C4CC4)c3CCN12` [Example 123e, 9-cyclopropyl-2-(4-(trifluoromethyl)-1H-imidazol-1-yl)-7,8-dihydro-[1,4]diazepino[7,1-a]isoquinolin-5(4H)-one], the results for the IC50 in assay [1] and in assay [2] were 0.056 µM and 1.64 µM, respectively.
`O=C1CN=C(n2cnc(-c3ccncc3)c2)C=C2c3cccc(C4CC4)c3CCN12` [Example 123f, 9-cyclopropyl-2-(4-(pyridin-4-yl)-1H-imidazol-1-yl)-7,8-dihydro-[1,4]diazepino[7,1-a]isoquinolin-5(4H)-one]: the values for the IC50 in assay [1] and in assay [2] were 0.108 µM and above 2 µM, respectively.
On to `CCC(=O)c1cccc2c1CCN1C(=O)CN=C(n3cnc(C4CCC4)c3)C=C21` [Example 124, 2-(4-cyclobutyl-1H-imidazol-1-yl)-9-propionyl-7,8-dihydro-[1,4]diazepino[7,1-a]isoquinolin-5(4H)-one], for which the figures for the IC50 in assay [1] and in assay [2] were 0.005 µM and 3.3 µM, respectively.
`COCc1cn(C2=NCC(=O)N3CCc4c(cccc4C(C)(C)C)C3=C2)cn1` [Example 125, 9-(tert-butyl)-2-(4-(methoxymethyl)-1H-imidazol-1-yl)-7,8-dihydro-[1,4]diazepino[7,1-a]isoquinolin-5(4H)-one]: the IC50 in assay [1] is 0.18 µM; in assay [2], above 2 µM.
Turning to `O=C1CN=C(n2cnc(C3(O)CC3)c2)C=C2c3cccc(C4CC4)c3CCN12` [Example 127, 9-cyclopropyl-2-(4-(1-hydroxycyclopropyl)-1H-imidazol-1-yl)-7,8-dihydro-[1,4]diazepino[7,1-a]isoquinolin-5(4H)-one], the IC50 was 0.007 µM in assay [1] and 1.2 µM in assay [2].
On the same counts, the results for `O=C1CN=C(n2cnc(CCO)c2)C=C2c3cccc(C4CC4)c3CCN12` [Example 128, 9-cyclopropyl-2-(4-(2-hydroxyethyl)-1H-imidazol-1-yl)-7,8-dihydro-[1,4]diazepino[7,1-a]isoquinolin-5(4H)-one] are 0.001 µM and 0.041 µM.
Take `CC(O)c1cn(C2=NCC(=O)N3CCc4c(cccc4C4CC4)C3=C2)cn1` (centres unmarked) [Example 129, 9-cyclopropyl-2-(4-(1-hydroxyethyl)-1H-imidazol-1-yl)-7,8-dihydro-[1,4]diazepino[7,1-a]isoquinolin-5(4H)-one]: the results for the IC50 in assay [1] and in assay [2] were 0.002 µM and 1.5 µM, respectively.
For `O=C1CN=C(n2cnc(C(O)C3CC3)c2)C=C2c3cccc(C4CC4)c3CCN12` (centres unmarked) [Example 130, 9-cyclopropyl-2-(4-(cyclopropyl(hydroxy)methyl)-1H-imidazol-1-yl)-7,8-dihydro-[1,4]diazepino[7,1-a]isoquinolin-5(4H)-one], the results for the IC50 in assay [1] and in assay [2] were 0.027 µM and 3.31 µM, respectively.
Take `O=C1CN=C(n2cnc(COC(F)(F)F)c2)C=C2c3cccc(C4CC4)c3CCN12` [Example 131, 9-cyclopropyl-2-(4-((trifluoromethoxy)methyl)-1H-imidazol-1-yl)-7,8-dihydro-[1,4]diazepino[7,1-a]isoquinolin-5(4H)-one]: the IC50 was 0.046 µM in assay [1] and above 2 µM in assay [2].
For the compound `COC(=O)c1cccc2c1CCN1C(=O)CN=C(n3cnc(C4CC4)c3)C=C21` [Example 132, methyl 2-(4-cyclopropyl-1H-imidazol-1-yl)-5-oxo-4,5,7,8-tetrahydro-[1,4]diazepino[7,1-a]isoquinoline-9-carboxylate], the IC50 in assay [1] turned out to be 0.061 µM; in assay [2], 2.07 µM.
For the compound `O=C1CN=C(n2cnc(C3CC3)n2)C=C2c3cccc(-c4ccc(F)cn4)c3CCN12` [Example 133, 2-(3-cyclopropyl-1H-1,2,4-triazol-1-yl)-9-(5-fluoropyridin-2-yl)-7,8-dihydro-[1,4]diazepino[7,1-a]isoquinolin-5(4H)-one], the values for the IC50 in assay [1] and in assay [2] were 0.215 µM and above 10 µM, respectively.
Regarding `O=C1CN=C(n2cnc(C3CC3)n2)C=C2c3cccc(-c4cccc(F)n4)c3CCN12` [Example 134, 2-(3-cyclopropyl-1H-1,2,4-triazol-1-yl)-9-(6-fluoropyridin-2-yl)-7,8-dihydro-[1,4]diazepino[7,1-a]isoquinolin-5(4H)-one], the IC50 in assay [1] was 0.198 µM; in assay [2] it was above 10 µM.
On the same counts, the results for `O=C1CN=C(n2cnc(C3CC3)n2)C=C2c3cccc(-c4cc(F)ccn4)c3CCN12` [Example 135, 2-(3-cyclopropyl-1H-1,2,4-triazol-1-yl)-9-(4-fluoropyridin-2-yl)-7,8-dihydro-[1,4]diazepino[7,1-a]isoquinolin-5(4H)-one] are 0.829 µM and above 10 µM.
`O=C1CN=C(n2cnc(C3CC3)n2)C=C2c3cccc(-c4cnc(F)cn4)c3CCN12` [Example 136, 2-(3-cyclopropyl-1H-1,2,4-triazol-1-yl)-9-(5-fluoropyrazin-2-yl)-7,8-dihydro-[1,4]diazepino[7,1-a]isoquinolin-5(4H)-one]: the IC50 was 0.019 µM in assay [1] and above 2 µM in assay [2].
Take `Cc1ncn(C2=NCC(=O)N3CCc4c(cccc4-c4cnc(F)cn4)C3=C2)n1` [Example 137, 9-(5-fluoropyrazin-2-yl)-2-(3-methyl-1H-1,2,4-triazol-1-yl)-7,8-dihydro-[1,4]diazepino[7,1-a]isoquinolin-5(4H)-one]: the IC50 in assay [1] was 0.048 µM; in assay [2], above 10 µM.
Consider `O=C1CN=C(n2cnc(C3CC3)c2)C=C2c3cccc(-n4nccn4)c3CCN12` [Example 138, 2-(4-cyclopropyl-1H-imidazol-1-yl)-9-(2H-1,2,3-triazol-2-yl)-7,8-dihydro-[1,4]diazepino[7,1-a]isoquinolin-5(4H)-one], for which the IC50 in assay [1] was 0.079 µM; in assay [2] it was 1.49 µM.
As for `O=C1CN=C(n2cnc(C3CC3)c2)C=C2c3cccc(-c4cnc(F)cn4)c3CCN12` [Example 139, 2-(4-cyclopropyl-1H-imidazol-1-yl)-9-(5-fluoropyrazin-2-yl)-7,8-dihydro-[1,4]diazepino[7,1-a]isoquinolin-5(4H)-one], the concentration for half-maximal inhibition (IC50) in assay [1] was determined as 0.017 µM; in assay [2], 1.1 µM.
In the case of `O=C1CN=C(n2cnc(C3CC3)c2)C=C2c3ccc(F)c(-c4cnc(F)nc4)c3CCN12` [Example 140], the IC50 in assay [1] is 0.093 µM; in assay [2], above 10 µM.
As to `O=C1CN=C(n2cnc(C3CC3)c2)C=C2c3cccc(-c4cncc(F)n4)c3CCN12` [Example 141, 2-(4-cyclopropyl-1H-imidazol-1-yl)-9-(6-fluoropyrazin-2-yl)-7,8-dihydro-[1,4]diazepino[7,1-a]isoquinolin-5(4H)-one], the IC50 in assay [1] was 0.026 µM; in assay [2], 0.402 µM.
Regarding `COCc1cn(C2=NCC(=O)N3CCc4c(OC(C)C)cccc4C3=C2)cn1` [Example 142, 9-isopropoxy-2-(4-(methoxymethyl)-1H-imidazol-1-yl)-7,8-dihydro-[1,4]diazepino[7,1-a]isoquinolin-5(4H)-one], the IC50 in assay [1] was 0.273 µM; in assay [2], above 2 µM.
Consider `COCc1cn(C2=NCC(=O)N3CCc4c(C5CC5)cccc4C3C2)cn1` (centres unmarked) [Example 143, 9-cyclopropyl-2-(4-(methoxymethyl)-1H-imidazol-1-yl)-1,7,8,12b-tetrahydro-[1,4]diazepino[7,1-a]isoquinolin-5(4H)-one], for which the IC50 in assay [1] was 0.282 µM; in assay [2], above 10 µM.
